Laboratory results published in patent publication US20190070165A1, “N-HYDROXYISOQUINOLINEDIONE INHIBITORS OF HBV REPLICATION” (Saint Louis University, priority 2016, published 2019).
Read-outs that look alike come from different tables or passages of the source.

Experiments:
[1] = MTS cytotoxicity assay (CellTiter 96); conditions: human
Procedure: HepDES19 cells were seeded at 1×10^4 cells per well in a 96 well plate in the absence of tetracycline. The test compounds were applied in triplicate to the cells 48 hours later and the cells were incubated for 72 hours. Cell viability was measured using the CellTiter 96 Aqueous Non-Radioactive Cell Proliferation Assay (Promega). [3-(4,5-dimethylthiazol-2-yl)-5-(3-carboxymethoxyphenyl)-2-(4-sulfophenyl)-2H-tetrazolium, inner salt] (MTS) and phenazine methosulfate (PMS) solution at 2 mg/mL MTS and 0.043 mg/mL PMS were added to the medium, the cells were incubated for two hours at 37° C., and absorbance was measured at 490 nm. […] Neutral red was added to the media at a final concentration of 40 μg/mL. Cells were washed with PBS and incubated with neutral red medium for two hours at 37° C. The neutral red medium was removed and the cells were washed with PBS. […] Lactate dehydrogenase (LDH) release was measured using the LDH-cytotoxicity colorimetric assay kit (BioVision). Cells were lysed with 1% Triton-X to provide the high control and DMSO vehicle treatment was the low control. Supernatants were collected and transferred to a fresh 96 well plate, and LDH reaction mixture containing the catalyst and dye solution was added. The reaction was incubated for 15-20 minutes at room temperature in a dark box and absorbance was measured at 490 nm. Percent cytotoxicity was calculated as [(test sample−low control)/([…])]×100.

HBV RNaseH [2] = target: T1, HBV RNaseH (Hepatitis B virus genotype D subtype ayw, UniProt P03156); experiment: Molecular beacon RNaseH assay
T1 sequence (P03156 671-832): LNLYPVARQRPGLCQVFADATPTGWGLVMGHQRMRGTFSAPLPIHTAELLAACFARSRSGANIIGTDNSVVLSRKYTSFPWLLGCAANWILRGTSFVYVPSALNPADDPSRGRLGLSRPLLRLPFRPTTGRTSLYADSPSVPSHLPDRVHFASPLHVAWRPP
Procedure: In this assay, a hairpin DNA oligonucleotide labeled with fluorescein on one end and a quencher on the other is held in a linear conformation by annealing to a complementary RNA; cleavage of the RNA causes the DNA to fold into a hairpin, suppressing fluorescence (FIG. 8A).
The substrate is a hairpin DNA oligonucleotide with a 5′ fluorescein reporter and a 3′ black hole quencher annealed to a complementary RNA oligonucleotide. The reaction was initiated by adding 5 mM Mg^++, and fluorescence was monitored at 37° C. with a Synergy 4 96-well plate reader. Inhibition was qualitatively determined as a dose-dependent reduction in the rate of substrate degradation.

HSV-1 = HSV-1 replication inhibition assay in Vero cells; type: cell-based, herpes simplex virus 1; conditions: Human alphaherpesvirus 1, 24 h; 5 μM, Vero cells; read-out: HSV-1 suppression (log10 at 5 μM), class symbol
[3] = Neutral red (NR) cytotoxicity assay; type: cell-based; conditions: human, HepDES19 cells, read-out: Toxicity in HepDES19, NR (CC50)
Procedure: (§1) To further evaluate potential cytotoxicity of these hits, the effect of the compounds was determined for the uptake of neutral red (NR) by the lysosomes and lactate dehydrogenase (LDH) release into the supernatant due to cell membrane permeability. […] Overall, the TI values in Table 3 and FIG. 4 indicate that cytotoxicity was not the cause of antiviral efficacy, although it may have contributed to the apparent efficacy for #84, 85, 90, and 91, which all have TI values below 5.

[4] = Lactate dehydrogenase (LDH) release cytotoxicity assay; type: cell-based; conditions: human, HepDES19 cells, read-out: Toxicity in HepDES19, LDH (CC50)
Procedure: as §1

[5] = Stability in mouse liver microsomes; type: in vitro ADME
HBV replication = HBV replication inhibition assay in HepDES19 cells (strand-preferential q-PCR); type: cell-based, Hepatitis B virus; conditions: Hepatitis B virus
human RNaseH1 = target: T2, human RNaseH1 (Homo sapiens, UniProt O60930); experiment: Oligonucleotide-directed RNA cleavage assay, human RNaseH1; type: biochemical; conditions: compounds at 100, 60 and 20 μM
T2 construct: made in house; host or cells: E. coli
T2 sequence (O60930 1-286): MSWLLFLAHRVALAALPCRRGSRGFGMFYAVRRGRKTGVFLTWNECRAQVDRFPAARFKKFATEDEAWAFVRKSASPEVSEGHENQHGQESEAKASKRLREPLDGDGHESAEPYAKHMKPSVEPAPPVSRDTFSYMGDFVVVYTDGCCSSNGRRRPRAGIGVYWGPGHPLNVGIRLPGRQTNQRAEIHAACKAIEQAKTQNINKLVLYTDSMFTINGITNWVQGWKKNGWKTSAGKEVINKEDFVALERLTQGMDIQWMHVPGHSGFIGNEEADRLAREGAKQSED
Description: RNaseH expression and purification.
Oligonucleotide-directed RNA cleavage assay.

HBV RNaseH [6] = target: T1, HBV RNaseH
Procedure: RNaseH expression and purification. […] The enriched extracts were dialyzed into 50 mM HEPES pH 7.3, 300 mM NaCl, 20% glycerol, and 5 mM DTT and stored in liquid nitrogen.
Oligonucleotide-directed RNA cleavage assay. […] This mixture was incubated with test compounds in 50 mM Tris pH 8.0, 190 mM NaCl, 5 mM MgCl2, 3.5 mM DTT, 0.05% NP40, 6% glycerol, and 1% DMSO at 42° C. for 90 minutes. Cleavage products were resolved by denaturing polyacrylamide gel electrophoresis, detected by autoradiography, and quantified using ImageJ. Non-specific background values were determined from the incorrect oligonucleotide negative control lane and subtracted from all experimental values. IC50 values were then calculated with GraphPad Prism using three-parameter log(inhibitor) vs. response non-linear curve fitting with the curve minimum set to zero to reflect background subtraction.
The HBV RNaseH inhibition activity of the 16 previously untested compounds was examined using an oligonucleotide-directed cleavage assay. Compounds were incubated with the HBV RNaseH, a ^32P-labeled RNA substrate plus a complementary DNA oligonucleotide and compounds at 100, 60, and 20 μM and the amount of the RNA cleavage products was measured following resolution on an acrylamide gel.
Briefly, a ^32P-labeled RNA was combined with a DNA oligonucleotide and the RNA:DNA substrate was incubated in the presence of the RNaseH and test compounds in 50 mM tris pH 8.0, 190 mM NaCl, 5 mM MgCl2, 3.5 mM DTT, 0.05% NP40, 6% glycerol, and 1% DMSO at 42° C. for 90 minutes. The products were resolved by gel electrophoresis and detected by audioradioagraphy.

HBV infections = conditions: cited from earlier work

C/C(=N\c1ccccc1NO)c1c(C)cc(=O)n(O)c1O [Compound 208]
CC50 at 72 h [1]: 15 ± 7 µM
inhibition in the molecular beacon assay (HBV RNaseH [2]; 2.1 μg purified HBV RNaseH): inhibited
Inhibition of HBV RNaseH, Molecular Beacon cleavage assay (HBV RNaseH [2]; Table 3, 0 to 500 μM): + (Dose-dependent inhibition at ≤500 μM)
log reduction at 5 µM (HSV-1): < 1
CC50 at 72 h [3]: 13 ± 1 µM
CC50 at 72 h [4]: 12 ± 0.1 µM
stability in mouse liver microsomes [5]: stable
EC50 (HBV replication; HepDES19, read-out: EC50, HBV replication): 0.69 µM
EC50 (HBV replication; HepDES19, read-out: HBV replication inhibition (EC50, μm)): 0.69 ± 0.2 µM
inhibition of huRNaseH1 (human RNaseH1): did not inhibit the huRNaseH1 at 100 μM
Inhibition of HBV RNaseH, Oligonucleotide directed cleavage assay (HBV RNaseH [6]; Table 3, compounds at 100, 60 and 20 μM, compounds 1-91 and 138-140 previously reported (Cai et al., 2014)): + (Dose-dependent inhibition at ≤100 μM)
inhibition of RNA cleavage by HBV RNaseH (HBV RNaseH [6]; compounds at 100, 60 and 20 μM): inhibited RNA cleavage by the HBV RNaseH

Interferon α
patients with sustained clinical improvement (HBV infections): 20-30%
